EP0551662A1, “Benzofuranyl- and thiophenylmethylthio-alcanecarboxylic acid derivatives” (BAYER AG, priority 1992, dated 1993)

Key:
[1] = system: polymorphonuclear granulocytes; test: FMLP-induced chemiluminescence of polymorphonuclear granulocytes (inhibition of FMLP-stimulated production of superoxide radical anions); format: cell-based; settings: human PMN
Protocol: 1. Preparation of human PMN Blood was taken from healthy subjects by venous puncture and neutrophils were purified by dextran sedimentation and resuspended in the buffered medium. 2. Inhibition of FMLP-stimulated production of superoxide radical anions. Neutrophils (2.5 × 10⁵ ml⁻¹) were mixed with the compounds according to the invention in dimethyl sulphoxide (DMSO), the final concentration of the compounds according to the invention being 10 µM and the DMSO concentration being 1% v/v. After addition of luminol, final concentration about 10⁻⁵M and 33 µg/ml of cytochalasin B, the cells were stimulated with a final concentration of about 5 × 10⁻⁸ M FMLP. Measurement of the chemiluminescence peaks was carried out using an LKB 1251 luminometer. The inhibition of the superoxide and the reduction of cytochrome C by FMLP-stimulated cells was likewise measured. Neutrophils (2.6 × 10⁵ ml⁻¹) were mixed with the compounds according to the invention as in the chemiluminescence experiment. Cytochrome C with a concentration of […] is also present. The superoxide-dependent cytochrome C reduction was measured using a Molecular Devices Thermomax plate reader. The inhibition of superoxide production was calculated as follows: [formula] […]

[2] = target: T1, NADPH oxidase (Homo sapiens, UniProt P04839); test: NADPH oxidase assay in membrane fractions of PMA-stimulated neutrophils; format: biochemical; settings: final concentration of 33 µM of the test substance
T1 construct: endogenous in cells; host or cells: neutrophils, PMA-stimulated, sonicated; membrane fraction
T1 sequence (P04839 2-570 limits assumed): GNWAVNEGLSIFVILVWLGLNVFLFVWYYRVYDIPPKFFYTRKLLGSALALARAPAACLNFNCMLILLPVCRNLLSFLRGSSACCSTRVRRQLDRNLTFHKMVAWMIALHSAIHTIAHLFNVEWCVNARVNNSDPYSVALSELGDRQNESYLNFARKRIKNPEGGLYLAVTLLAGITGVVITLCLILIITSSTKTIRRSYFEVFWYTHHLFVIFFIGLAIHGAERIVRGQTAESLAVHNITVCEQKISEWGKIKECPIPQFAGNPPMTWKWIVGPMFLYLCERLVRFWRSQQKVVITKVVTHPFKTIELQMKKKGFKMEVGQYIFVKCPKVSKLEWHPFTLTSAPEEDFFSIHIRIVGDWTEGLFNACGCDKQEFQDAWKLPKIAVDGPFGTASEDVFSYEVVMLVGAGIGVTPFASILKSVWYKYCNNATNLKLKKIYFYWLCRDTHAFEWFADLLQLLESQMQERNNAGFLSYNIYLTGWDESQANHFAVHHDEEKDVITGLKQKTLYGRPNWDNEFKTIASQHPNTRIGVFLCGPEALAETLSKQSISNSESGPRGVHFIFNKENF
T1 sequence (P13498 2-195 partner limits assumed): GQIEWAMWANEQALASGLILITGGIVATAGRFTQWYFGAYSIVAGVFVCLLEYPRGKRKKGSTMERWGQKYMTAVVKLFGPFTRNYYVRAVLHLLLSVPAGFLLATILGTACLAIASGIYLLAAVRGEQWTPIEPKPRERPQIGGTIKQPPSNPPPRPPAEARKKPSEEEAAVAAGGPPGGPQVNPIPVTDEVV
Protocol: 3. Inhibition of myeloperoxidase The compounds according to the invention were tested for their action on human neutrophil myeloperoxidase activity by the established method of Bos, A.J. et al., Infection and Immunity, 1981, 32 (2), 427-431. 4. Xanthine oxidase assay Equal parts of the substrate (7.5 mM hypoxanthine) were incubated at 25°C with the compounds according to the invention or carrier, and 10⁻⁵ M luminol and the enzyme xanthine oxidase were added immediately before starting the luminescence measurement. The formation of superoxide was then measured for 140 sec in the 1251 luminometer. The activity was in each case measured against xanthine oxidase in the presence or absence of the compounds according to the invention by monitoring the growth of the absorption at 292 nm due to the formation of uric acid. 5. Determination of the specificity When neutrophils are activated by PMA or FMLP, they release the lysosomal enzyme beta-glucuronidase. […] Using a concentration of 10⁶ cells ml⁻¹, the compounds according to the invention were tested in parallel using a cell preparation thereof to gauge their capability to inhibit FMLP-induced superoxide production and FMLP-induced beta-glucuronidase release. 6. NADPH oxidase assay Neutrophils were stimulated with PMA and treated with ultrasound, and a membrane fraction was prepared. […]

[3] = system: mitochondrial fraction; test: Mitochondrial substrate oxidation assay (oxygen electrode); format: biochemical; settings: NADPH oxidation by mitochondria, final concentration of 300 µM of the test substance, guinea pig hearts
Protocol: 7. Mitochondrial substrate oxidation assay A mitochondrial fraction was prepared from finely-cut guinea pig hearts. […] The compounds according to the invention were tested to gauge their inhibition of cell respiration by measurement of their effect on the oxidation of these two substances at a concentration of up to 100 µg/ml⁻¹. % inhibition of NADPH oxidation by mitochondria at a final concentration of 300 µM of the test substance Table C

Structure (SMILES)	inhibition at 10 µM ([1]; 10 µM of the test substance) [%]	IC50 ([1]; read-out: IC₅₀) [nM]	inhibition at 33 µM [2] [%]	% inhibition (mitochondrial respiration) [3] [%]
COc1ccc(C(=O)c2oc3ccccc3c2CSCCC(=O)O)cc1C(=O)NS(=O)(=O)c1ccccc1C [Example 17, 2-[4-Methoxy-3-(2-tolylsulphonamide-carbonyl)-benzoyl]-3-[(2-carboxyethyl)thiomethyl]benzo[b]furan]	96 ± 2	700	21 ± 7	24 ± 2
COc1ccc(C(=O)c2oc3ccccc3c2CSCCC(=O)O)cc1C(=O)O [Example 31]	–	–	20	0 ± 7
